# Experimental data reported in PMC10215804, “Exploring Alternative Pathways to Target Bacterial Type II Topoisomerases Using NBTI Antibacterials: Beyond Halogen-Bonding Interactions” (Antibiotics, 2023).
# Read-outs that look alike come from different tables or passages of the source.
# Assays:
# [1] = molecular target: T1, S. aureus DNA gyrase (Staphylococcus aureus, UniProt P20831); settings: supercoiling inhibition; cited from earlier work
# T1 construct: purchased Inspiralis (Norwich, UK)
# [2] = molecular target: T2, human topoisomerase IIα (Homo sapiens, UniProt P11388); settings: residual activity at 100 µM compound; cited from earlier work
# T2 construct: purchased Inspiralis (Norwich, UK)
# [3] = system: S. aureus (ATCC 29213); settings: cited from earlier work
# [4] = system: MRSA (QA-11.7); settings: cited from earlier work
# [5] = system: E. coli (ATCC 25922); settings: cited from earlier work
# [6] = system: E. coli D22; settings: lpxC mutation; cited from earlier work
# [7] = system: E. coli N43 (CGSC# 5583); settings: AcrA knockout; cited from earlier work
# [8] = system: P. aeruginosa RDK 184; settings: cited from earlier work
# [9] = system: E. faecalis RDK 057; settings: cited from earlier work
# [10] = system: VRE; settings: cited from earlier work
# [11] = molecular target: T3, E. coli DNA gyrase (Escherichia coli, UniProt P0AES4); settings: supercoiling inhibition; cited from earlier work
# T3 construct: purchased Inspiralis (Norwich, UK)
# [12] = molecular target: T4, S. aureus topoIV (Staphylococcus aureus, UniProt P0C1U9); settings: relaxation inhibition; cited from earlier work
# T4 construct: purchased Inspiralis (Norwich, UK)
# [13] = molecular target: T5, E. coli topoIV (Escherichia coli, UniProt P0AFI2); settings: relaxation inhibition; cited from earlier work
# T5 construct: purchased Inspiralis (Norwich, UK)
# [14] = system: MRSA(QA-12.1); design: method as in PMID 35970069; settings: cited from earlier work
# [15] = system: MRSA (QA-11.2); design: method as in PMID 35970069; settings: cited from earlier work
# [16] = system: E. coli ESBL QA-11.3; design: method as in PMID 35970069; settings: cited from earlier work
# [17] = system: K. pneumoniae; design: method as in PMID 35970069; settings: cited from earlier work
# [18] = system: A. baumannii; design: method as in PMID 35970069; settings: cited from earlier work
# [19] = molecular target: T1, S. aureus DNA gyrase; test: biochemical; settings: supercoiling inhibition; mean of two independent measurements ± SD
# Method: (§1) To determine the IC50 values of the compounds for S. aureus and E. coli, a DNA gyrase supercoiling high-throughput plate assay and a topoIV relaxation high-throughput plate assay were performed. Assay kits and black streptavidin-coated 96-well microtiter plates are available from Inspiralis (Norwich, UK). For pre-screening, an inhibitor concentration of 100 μM was used. […] A nonlinear regression-based fit of the inhibition curves was used, with the log [inhibitor] versus slope of the reaction variables (four parameters) and a symmetric equation. […] To determine IC50 values, two independent repetitions were performed and the average was calculated.
# [20] = molecular target: T4, S. aureus topoIV; test: biochemical; settings: relaxation inhibition; mean of two independent measurements ± SD
# Method: as §1
# [21] = molecular target: T3, E. coli DNA gyrase; test: DNA gyrase supercoiling inhibition assay (high-throughput plate assay); format: biochemical
# Method: as §1
# [22] = molecular target: T5, E. coli topoIV; test: topoIV relaxation inhibition assay (high-throughput plate assay); format: biochemical
# Method: as §1
# [23] = molecular target: T2, human topoisomerase IIα; test: human topoisomerase II alpha relaxation high-throughput assay (selectivity); format: biochemical; settings: residual activity at 100 µM compound; mean ± SD, two independent experiments; read-out: Human TopoIIα (% RA at 100 µM)
# Method: For selectivity determination, a human topoisomerase II alpha relaxation high-throughput assay was used. The assay kits and black streptavidin-coated 96-well microtiter plates are available from Inspiralis (Norwich, UK). Two independent measurements were performed with an inhibitory concentration of 100 µM. Raw data were calculated as the mean ± SD percentage of the residual enzyme activity.
# [24] = system: A. baumannii; test: MIC, broth microdilution; format: cell-based; settings: Acinetobacter baumannii
# Method: (§2) For the determination of minimum inhibitory concentrations (MIC), the broth microdilution method was used in 96-well plate format, according to the guidelines of the Clinical and Laboratory Standards Institute and the recommendations of the European Committee on Antimicrobial Susceptibility Testing (EUCAST). The dilutions of the bacterial suspension of the specific bacterial strain, corresponding to the 0.5 McFarland turbidity standard, were prepared with […] Mueller–Hinton broth with TES (Thermo Fisher Scientific) to obtain an end inoculum of 10^5 CFU/mL. The compounds were dissolved in DMSO and mixed with the inoculum. […] The MIC was determined as the lowest concentration of antibiotic that prevented visible bacterial growth. Tetracycline was used as a positive control on each test plate.
# [25] = system: E. coli (ATCC 25922); test: MIC, broth microdilution; format: cell-based; settings: Escherichia coli, ATCC25922
# Method: as §2
# [26] = system: E. coli D22; test: MIC, broth microdilution; format: cell-based; settings: Escherichia coli, D22
# Method: as §2
# [27] = system: E. coli ESBL QA-11.3; test: MIC, broth microdilution; format: cell-based; settings: Escherichia coli, ESBLQA11.3
# Method: as §2
# [28] = system: E. coli N43 (CGSC# 5583); test: MIC, broth microdilution; format: cell-based; settings: Escherichia coli
# Method: as §2
# [29] = system: E. faecalis RDK 057; test: MIC, broth microdilution; format: cell-based; settings: Enterococcus faecalis, RDK057
# Method: as §2
# [30] = system: K. pneumoniae; test: MIC, broth microdilution; format: cell-based; settings: Klebsiella pneumoniae
# Method: as §2
# [31] = system: P. aeruginosa RDK 184; test: MIC, broth microdilution; format: cell-based; settings: Pseudomonas aeruginosa
# Method: as §2
# [32] = system: S. aureus (ATCC 29213); test: MIC, broth microdilution; format: cell-based; settings: Staphylococcus aureus, ATCC29213
# Method: as §2
# [33] = system: VRE; test: MIC, broth microdilution; format: cell-based; settings: Enterococcus
# Method: as §2
# [34] = system: MRSA (QA-11.2); test: MIC, broth microdilution; format: cell-based, S. aureus; settings: Staphylococcus aureus
# Method: as §2
# [35] = system: MRSA (QA-11.7); test: MIC, broth microdilution; format: cell-based, S. aureus; settings: Staphylococcus aureus
# Method: as §2
# [36] = system: MRSA(QA-12.1); test: MIC, broth microdilution; format: cell-based, S. aureus; settings: Staphylococcus aureus
# Method: as §2
# [37] = Metabolic activity assessment (cytotoxicity), CellTiter 96 Aqueous One; format: cell-based; settings: human, HepG2 cells (ATCC HB-8065); 72 h treatment; means of three independent measurements ± SD
# Method: HUVEC (ATCC® CRL-1730™) and HepG2 (ATCC® HB-8065™) cell lines were cultured in Dulbecco’s Modified Eagle Medium (DMEM; Sigma-Aldrich, St. Louis, MO, USA) supplemented with 10% heat-deactivated FBS (Gibco, Grand Island, NE, USA), 2 mM L-glutamine, 100 U/mL penicillin, 100 μg/mL streptomycin (all from Sigma-Aldrich, St. Louis, MO, USA) in a humidified chamber at 37 °C and 5% CO2. The experiments were carried out on passages 4–7 for both cell lines. The tested compounds were dissolved in DMSO and further diluted in culture medium to a desired final concentration. The cells were then seeded into 96-well plates at 5 × 10^4 cells/mL (100 μL/well) or 8 × 10^4 cells/mL (100 μL/well) for HUVEC and HepG2, respectively. The cells were then incubated for 24 h to allow attachment onto the wells. The cells were treated with 1 μM and 50 μM of each compound of interest, or the corresponding vehicle as control. […] Their metabolic activity was assessed after 72 h treatment using a CellTiter 96 Aqueous One Solution Cell Proliferation Assay (Promega, Madison, WI, USA), in accordance with the manufacturer’s instructions. The absorbance was measured at 492 nm on an automated microplate reader, Tecan Spark (Tecan Group Ltd., Männedorf, CH, Switzerland). Data are presented as the percentage of metabolic activity of control cells stimulated with vehicle, or as an IC50 value (mean ± SD) from three independent experiments, each conducted in triplicate (for screening) or duplicate (for IC50 determination). IC50 values were calculated using a non-linear regression model and with Graph Pad Prism 9 software.
# T1 sequence (P20831 whole entry): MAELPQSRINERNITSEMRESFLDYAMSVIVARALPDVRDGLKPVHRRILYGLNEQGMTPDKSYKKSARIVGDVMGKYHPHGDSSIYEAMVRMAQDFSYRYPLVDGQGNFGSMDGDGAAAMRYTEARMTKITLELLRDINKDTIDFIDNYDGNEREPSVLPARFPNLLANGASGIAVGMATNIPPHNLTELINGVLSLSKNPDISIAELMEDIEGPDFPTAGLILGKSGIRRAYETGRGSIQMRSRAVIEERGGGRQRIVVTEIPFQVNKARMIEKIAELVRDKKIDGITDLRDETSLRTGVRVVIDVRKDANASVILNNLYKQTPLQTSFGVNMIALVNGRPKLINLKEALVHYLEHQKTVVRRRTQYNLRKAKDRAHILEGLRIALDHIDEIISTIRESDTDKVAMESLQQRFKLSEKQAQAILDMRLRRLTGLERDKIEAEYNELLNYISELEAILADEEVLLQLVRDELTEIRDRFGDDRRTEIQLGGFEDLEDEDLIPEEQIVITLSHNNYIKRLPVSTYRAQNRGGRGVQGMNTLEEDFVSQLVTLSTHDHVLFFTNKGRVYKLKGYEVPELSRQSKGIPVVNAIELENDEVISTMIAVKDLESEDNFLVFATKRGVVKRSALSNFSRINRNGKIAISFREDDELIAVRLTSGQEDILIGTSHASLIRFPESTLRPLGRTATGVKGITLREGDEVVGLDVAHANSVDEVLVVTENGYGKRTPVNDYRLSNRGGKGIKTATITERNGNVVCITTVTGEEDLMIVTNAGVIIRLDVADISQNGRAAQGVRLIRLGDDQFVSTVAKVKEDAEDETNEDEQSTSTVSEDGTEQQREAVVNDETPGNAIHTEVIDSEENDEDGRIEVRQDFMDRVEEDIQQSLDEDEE
# T1 sequence (P0A0K8 whole entry partner): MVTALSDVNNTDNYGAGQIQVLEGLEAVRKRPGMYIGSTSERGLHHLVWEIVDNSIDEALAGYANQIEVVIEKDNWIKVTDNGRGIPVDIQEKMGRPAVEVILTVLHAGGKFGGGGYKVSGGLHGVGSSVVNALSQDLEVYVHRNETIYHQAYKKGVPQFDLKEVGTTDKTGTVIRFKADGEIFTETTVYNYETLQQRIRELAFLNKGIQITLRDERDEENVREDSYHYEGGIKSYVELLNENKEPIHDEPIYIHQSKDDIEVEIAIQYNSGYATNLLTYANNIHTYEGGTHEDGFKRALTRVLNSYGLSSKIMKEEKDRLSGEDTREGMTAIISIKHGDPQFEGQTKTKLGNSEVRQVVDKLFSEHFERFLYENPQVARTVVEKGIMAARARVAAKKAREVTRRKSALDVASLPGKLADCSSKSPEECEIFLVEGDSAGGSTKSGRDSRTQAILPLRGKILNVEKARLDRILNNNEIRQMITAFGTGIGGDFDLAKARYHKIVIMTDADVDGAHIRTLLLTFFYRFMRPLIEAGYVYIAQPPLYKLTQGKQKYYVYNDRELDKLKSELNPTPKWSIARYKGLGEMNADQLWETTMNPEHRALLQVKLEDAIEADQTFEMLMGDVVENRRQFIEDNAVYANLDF
# T2 sequence (P11388 whole entry): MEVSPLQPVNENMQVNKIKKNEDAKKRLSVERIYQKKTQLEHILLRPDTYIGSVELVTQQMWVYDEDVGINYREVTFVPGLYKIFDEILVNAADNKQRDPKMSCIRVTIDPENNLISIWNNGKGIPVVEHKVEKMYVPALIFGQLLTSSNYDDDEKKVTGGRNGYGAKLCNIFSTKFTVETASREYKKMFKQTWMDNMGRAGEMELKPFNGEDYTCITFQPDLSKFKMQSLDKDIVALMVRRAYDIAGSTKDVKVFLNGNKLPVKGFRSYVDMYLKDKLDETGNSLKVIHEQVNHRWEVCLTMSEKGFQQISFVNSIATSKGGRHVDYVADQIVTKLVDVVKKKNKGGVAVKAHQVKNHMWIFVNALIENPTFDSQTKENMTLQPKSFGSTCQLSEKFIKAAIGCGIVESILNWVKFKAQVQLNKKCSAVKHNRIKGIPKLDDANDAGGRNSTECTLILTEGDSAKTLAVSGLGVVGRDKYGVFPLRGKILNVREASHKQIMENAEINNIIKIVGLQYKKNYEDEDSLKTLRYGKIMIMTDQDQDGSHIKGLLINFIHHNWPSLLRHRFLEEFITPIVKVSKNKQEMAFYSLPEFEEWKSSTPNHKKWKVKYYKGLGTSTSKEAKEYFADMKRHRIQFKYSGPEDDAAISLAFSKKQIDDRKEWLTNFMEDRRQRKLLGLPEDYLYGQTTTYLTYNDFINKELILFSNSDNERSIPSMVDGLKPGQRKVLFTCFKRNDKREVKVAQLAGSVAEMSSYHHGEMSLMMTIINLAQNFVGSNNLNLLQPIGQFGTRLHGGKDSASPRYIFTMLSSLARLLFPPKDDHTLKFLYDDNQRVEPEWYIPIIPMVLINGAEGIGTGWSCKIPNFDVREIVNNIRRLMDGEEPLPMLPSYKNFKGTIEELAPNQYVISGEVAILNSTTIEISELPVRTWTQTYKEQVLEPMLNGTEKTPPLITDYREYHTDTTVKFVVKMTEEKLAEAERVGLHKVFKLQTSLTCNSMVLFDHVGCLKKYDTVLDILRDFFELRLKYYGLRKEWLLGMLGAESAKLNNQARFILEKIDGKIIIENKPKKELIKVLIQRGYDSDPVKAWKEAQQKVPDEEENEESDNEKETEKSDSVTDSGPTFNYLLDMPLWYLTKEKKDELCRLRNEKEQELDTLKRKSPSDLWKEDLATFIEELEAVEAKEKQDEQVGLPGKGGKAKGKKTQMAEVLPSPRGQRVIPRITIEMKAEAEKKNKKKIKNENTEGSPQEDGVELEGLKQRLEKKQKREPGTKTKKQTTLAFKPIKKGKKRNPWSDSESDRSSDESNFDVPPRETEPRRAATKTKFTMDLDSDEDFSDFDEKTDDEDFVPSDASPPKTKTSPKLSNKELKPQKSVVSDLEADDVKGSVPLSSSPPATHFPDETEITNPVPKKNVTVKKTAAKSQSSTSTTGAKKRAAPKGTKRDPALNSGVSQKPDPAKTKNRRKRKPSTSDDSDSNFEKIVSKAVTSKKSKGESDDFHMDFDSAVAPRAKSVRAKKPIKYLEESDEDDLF
# T5 sequence (P20083 whole entry): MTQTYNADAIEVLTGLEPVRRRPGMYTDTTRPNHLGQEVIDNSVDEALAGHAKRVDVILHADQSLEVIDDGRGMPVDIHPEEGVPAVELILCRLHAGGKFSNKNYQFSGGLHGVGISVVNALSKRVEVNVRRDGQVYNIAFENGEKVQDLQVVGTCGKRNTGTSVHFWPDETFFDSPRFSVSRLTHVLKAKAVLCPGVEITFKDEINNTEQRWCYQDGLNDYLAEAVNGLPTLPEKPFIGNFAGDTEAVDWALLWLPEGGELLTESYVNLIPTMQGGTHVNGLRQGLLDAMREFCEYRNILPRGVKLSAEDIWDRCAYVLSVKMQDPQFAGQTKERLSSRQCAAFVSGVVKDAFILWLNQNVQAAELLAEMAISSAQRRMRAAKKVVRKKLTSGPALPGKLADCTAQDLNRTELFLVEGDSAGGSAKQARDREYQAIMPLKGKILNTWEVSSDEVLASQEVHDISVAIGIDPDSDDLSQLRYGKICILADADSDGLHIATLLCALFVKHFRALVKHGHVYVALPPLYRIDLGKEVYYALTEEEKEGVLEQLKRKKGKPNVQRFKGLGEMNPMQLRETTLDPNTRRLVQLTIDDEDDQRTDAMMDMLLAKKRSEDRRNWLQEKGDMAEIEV
# T5 sequence (P0AFI2 whole entry): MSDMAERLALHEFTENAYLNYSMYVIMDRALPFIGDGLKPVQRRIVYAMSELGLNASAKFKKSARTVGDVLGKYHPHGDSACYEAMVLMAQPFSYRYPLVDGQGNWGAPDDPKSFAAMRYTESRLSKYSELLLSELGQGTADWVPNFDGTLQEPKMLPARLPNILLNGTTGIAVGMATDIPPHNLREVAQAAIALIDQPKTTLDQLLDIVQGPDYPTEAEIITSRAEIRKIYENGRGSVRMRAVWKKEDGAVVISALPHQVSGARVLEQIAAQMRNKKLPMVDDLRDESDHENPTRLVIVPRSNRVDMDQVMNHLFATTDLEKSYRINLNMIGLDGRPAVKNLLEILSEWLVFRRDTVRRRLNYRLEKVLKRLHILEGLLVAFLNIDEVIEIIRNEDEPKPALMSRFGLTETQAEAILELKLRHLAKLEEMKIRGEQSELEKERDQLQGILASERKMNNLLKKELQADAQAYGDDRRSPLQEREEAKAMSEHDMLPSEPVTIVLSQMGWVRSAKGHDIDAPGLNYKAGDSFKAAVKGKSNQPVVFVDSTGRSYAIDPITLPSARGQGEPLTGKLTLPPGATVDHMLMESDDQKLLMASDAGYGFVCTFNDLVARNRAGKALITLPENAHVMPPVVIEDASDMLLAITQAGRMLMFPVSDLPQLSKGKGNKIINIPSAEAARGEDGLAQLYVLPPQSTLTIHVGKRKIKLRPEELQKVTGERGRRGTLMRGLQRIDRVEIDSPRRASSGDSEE
smiles,measurement,setting,value
COc1ccc2nccc(CCN3CCC(NCc4ccc(Br)cc4)CC3)c2n1 [Compound 1],IC50,[1],26 ± 10 nM
same,Human TopoIIα (% RA at 100 µM),[2],98 ± 3%
same,MIC S. aureus (ATCC 29213),[3],0.125 µg/mL
same,MIC MRSA (QA-11.7),[4],0.5 µg/mL
same,MIC E. coli (ATCC 25922),[5],2 µg/mL
same,MIC E. coli D22,[6],0.125 µg/mL
same,MIC E. coli N43 (CGSC# 5583),[7],0.125 µg/mL
same,MIC P. aeruginosa RDK 184,[8],128 µg/mL
same,MIC E. faecalis RDK 057,[9],0.5 µg/mL
same,MIC VRE,[10],2 µg/mL
COc1ccc2nccc(OCC3CCC(NCc4ccc(Br)cc4)CC3)c2n1 (stereo not drawn) [Compound 2],IC50,[1],372 ± 2 nM
same,IC50,[11],4800 ± 774 nM
same,IC50,[12],> 100000 nM
same,IC50,[13],495 ± 184 nM
same,Human TopoIIα (% RA at 100 µM),[2],106 ± 3%
same,MIC S. aureus (ATCC 29213),[3],0.125 µg/mL
same,MIC MRSA (QA-11.7),[4],0.25 µg/mL
same,MIC MRSA(QA-12.1),[14],0.25 µg/mL
same,MIC MRSA (QA-11.2),[15],0.5 µg/mL
same,MIC E. coli (ATCC 25922),[5],64 µg/mL
same,MIC E. coli D22,[6],8 µg/mL
same,MIC E. coli N43 (CGSC# 5583),[7],1 µg/mL
same,MIC E. coli ESBL QA-11.3,[16],128 µg/mL
same,MIC K. pneumoniae,[17],128 µg/mL
same,MIC P. aeruginosa RDK 184,[8],32 µg/mL
same,MIC E. faecalis RDK 057,[9],1 µg/mL
same,MIC VRE,[10],1 µg/mL
same,MIC A. baumannii,[18],128 µg/mL
COc1ccc2nccc(OC[C@H]3CC[C@H](NCc4ccc(Br)cc4)CO3)c2n1 [Compound 3],IC50,[1],294 ± 100 nM
same,IC50,[11],7740 ± 2310 nM
same,IC50,[12],> 100000 nM
same,IC50,[13],131 ± 40 nM
same,Human TopoIIα (% RA at 100 µM),[2],105 ± 1%
same,MIC S. aureus (ATCC 29213),[3],0.125 µg/mL
same,MIC MRSA (QA-11.7),[4],0.5 µg/mL
same,MIC MRSA(QA-12.1),[14],0.125 µg/mL
same,MIC MRSA (QA-11.2),[15],0.25 µg/mL
same,MIC E. coli (ATCC 25922),[5],128 µg/mL
same,MIC E. coli D22,[6],8 µg/mL
same,MIC E. coli N43 (CGSC# 5583),[7],8 µg/mL
same,MIC E. coli ESBL QA-11.3,[16],>128 µg/mL
same,MIC K. pneumoniae,[17],128 µg/mL
same,MIC P. aeruginosa RDK 184,[8],128 µg/mL
same,MIC E. faecalis RDK 057,[9],2 µg/mL
same,MIC VRE,[10],1 µg/mL
same,MIC A. baumannii,[18],>128 µg/mL
"COc1ccc2nccc(CCN3CCC(NCc4ccc(Br)c(C(F)(F)F)c4)CC3)c2n1 [Compound 12, N-(4-Bromo-3-(trifluoromethyl)benzyl)-1-(2-(6-methoxy-1,5-naphthyridin-4-yl)ethyl)piperidin-4-amine]",IC50,[19],62 nM
same,IC50,[20],345 ± 25 nM
same,IC50,[21],84 ± 20 nM
same,IC50,[22],23 ± 6 nM
same,remaining activity at 100 µM,[23],102%
same,MIC,"[24]; Table S3, read-out: MIC (μM) A. baumannii",5.12 µM
same,MIC,[24]; read-out: MIC A. baumannii,2 µg/mL
same,MIC,"[25]; Table S3, read-out: MIC (μM) E. coli (ATCC 25922)",10.2 µM
same,MIC,[25]; read-out: MIC E. coli (ATCC 25922),4 µg/mL
same,MIC,"[26]; Table S3, lpxC mutation, read-out: MIC (μM) E. coli D22",0.64 µM
same,MIC,"[26]; lpxC mutation that increases membrane permeability, read-out: MIC E. coli D22",0.25 µg/mL
same,MIC,"[27]; Table S3, read-out: MIC (μM) E. coli ESBL QA:11.3",10.2 µM
same,MIC,[27]; read-out: MIC E. coli ESBL QA-11.3,4 µg/mL
same,MIC,[28]; read-out: MIC (μM) E. coli N43,0.161 µM
same,MIC,[28]; read-out: MIC E. coli N43 (CGSC# 5583),0.063 µg/mL
same,MIC,"[29]; Table S3, read-out: MIC (μM) E. faecalis DRK 057",1.28 µM
same,MIC,[29]; read-out: MIC E. faecalis RDK 057,0.5 µg/mL
same,MIC,"[30]; Table S3, read-out: MIC (μM) K. pneumoniae",41 µM
same,MIC,[30]; read-out: MIC K. pneumoniae,16 µg/mL
same,MIC,"[31]; RDK184, 20 h, Table S3, read-out: MIC (μM) P. aeruginosa RDK 184",> 328 µM
same,MIC,"[31]; RDK184, read-out: MIC P. aeruginosa RDK 184",> 128 µg/mL
same,MIC,"[32]; Table S3, read-out: MIC (μM) S. aureus (ATCC 29213)",0.082 µM
same,MIC,[32]; read-out: MIC S. aureus (ATCC 29213),0.032 µg/mL
same,MIC,"[33]; Table S3, read-out: MIC (μM) VRE",0.64 µM
same,MIC,[33]; read-out: MIC VRE,0.25 µg/mL
same,MIC,[34]; read-out: MIC (μM) MRSA (QA-11.2),0.161 µM
same,MIC,[34]; read-out: MIC MRSA (QA-11.2),0.063 µg/mL
same,MIC,[35]; read-out: MIC (μM) MRSA (QA-11.7),0.161 µM
same,MIC,"[35]; strain resistant to cefoxitin, ciprofloxacin, clindamycin, erythromycin, tetracycline, thiamulin, trimethoprim, read-out: MIC MRSA (QA-11.7)",0.063 µg/mL
same,MIC,"[36]; Table S3, read-out: MIC (μM) MRSA(QA-12.1)",0.082 µM
same,MIC,"[36]; strain resistant to cefoxitin, gentamicin, kanamycin, rifampicin, streptomycin, sulfamethoxazole, tetracycline, read-out: MIC MRSA(QA-12.1)",0.032 µg/mL
same,IC50 at 72 h,[37],12000 ± 1860 nM
